Measured values reported in patent publication US20260374754A1, “N-((ISOQUINOLIN-6-YL)METHYL)-1H-PYRAZOLE-4-CARBOXAMIDE DERIVATIVES AS PLASMA KALLIKREIN INHIBITORS FOR THE TREATMENT OF HEREDITARY ANGIODEMA” (Takeda Pharmaceutical Company Limited, priority 2022, published 2026).

Target: human activated kallikrein enzyme (Homo sapiens, UniProt P03952)
Test: Inhibition of human activated plasma kallikrein, fluorogenic PFR-AMC substrate, 500 pM enzyme format
Format: biochemical
Conditions: 500 pM activated kallikrein; 300 μM PFR-AMC; 30 min preincubation; 10 min room temperature; pH 7.5; read-out: Primary Dose Response Assay: Average EC50
Description: Compounds were evaluated for inhibition of the human activated kallikrein enzyme in two formats of an assay employing a fluorogenic peptide substrate. In one assay format, the concentrations of reagents were as follows: 20 mM Tris pH 7.5, 1 mM EDTA, 150 mM sodium chloride, 0.1% PEG-400, 0.1% Triton X-100, 500 pM activated kallikrein enzyme, 300 μM Pro-Phe-Arg-7-amido-4-methylcoumarin (PFR-AMC) substrate. Prior to reaction initiation with substrate, enzyme and inhibitors were preincubated for 30 min at room temperature. After initiation with substrate, reactions were incubated for 10 min at room temperature and fluorescence emission at 460 nm from 380 nm excitation measured with a microplate reader. In another assay format, the concentrations of reagents were as follows: 20 mM Tris pH 7.5, 1 mM EDTA, 150 mM sodium chloride, 0.1% PEG-400, 0.1% Triton X-100, 5 pM activated kallikrein enzyme, 300 uM PFR-AMC substrate. Prior to reaction initiation with substrate, enzyme and inhibitors were preincubated for 30 min at room temperature. After initiation with substrate, reactions were incubated for 18 hr at room temperature and fluorescence emission at 460 nm from 380 nm excitation measured with a microplate reader.
Table 35 provides the results of the assay in the format with 500 pM activated kallikrein assay.

Sequence of human activated kallikrein enzyme (P03952 391-638 limits assumed): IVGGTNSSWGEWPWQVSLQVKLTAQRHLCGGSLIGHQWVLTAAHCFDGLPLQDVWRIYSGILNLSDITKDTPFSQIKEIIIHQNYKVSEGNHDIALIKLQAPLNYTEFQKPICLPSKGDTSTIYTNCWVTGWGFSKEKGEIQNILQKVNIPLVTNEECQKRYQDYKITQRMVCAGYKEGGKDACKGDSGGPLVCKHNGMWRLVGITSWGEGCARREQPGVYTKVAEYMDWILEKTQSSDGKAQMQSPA
Sequence of human activated kallikrein enzyme (P03952 20-390 partner limits assumed): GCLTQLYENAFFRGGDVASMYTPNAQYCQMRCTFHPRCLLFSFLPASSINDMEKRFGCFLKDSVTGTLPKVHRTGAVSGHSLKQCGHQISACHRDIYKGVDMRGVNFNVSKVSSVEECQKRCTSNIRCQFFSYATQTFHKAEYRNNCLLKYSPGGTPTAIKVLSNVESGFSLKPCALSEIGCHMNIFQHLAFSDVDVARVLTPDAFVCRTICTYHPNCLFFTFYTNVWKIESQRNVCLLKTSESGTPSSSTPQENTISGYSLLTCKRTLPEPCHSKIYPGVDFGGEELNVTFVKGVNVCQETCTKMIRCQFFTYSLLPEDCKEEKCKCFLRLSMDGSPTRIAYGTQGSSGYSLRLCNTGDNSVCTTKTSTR

Structure (SMILES) | EC50
Cc1cc2c(N)nccc2c(C)c1CNc1cc(NCc2ccc(OCc3nccs3)cc2)ncn1 [Example 356, N^4-((1-amino-5,7-dimethylisoquinolin-6-yl)methyl)-N^6-(4-(thiazol-2-ylmethoxy)benzyl)pyrimidine-4,6-diamine] | < 1 nM
Cc1cc2c(N)nccc2c(C)c1CNc1cc(OCc2cn3c(=O)n(C4CC4)ccc3n2)ncn1 [Example 397, 2-(((6-(((1-amino-5,7-dimethylisoquinolin-6-yl)methyl)amino)pyrimidin-4-yl)oxy)methyl)-6-cyclopropylimidazo[1,2-c]pyrimidin-5(6H)-one] | 10 to 100 nM
Cc1cc2c(N)nccc2c(C)c1CNc1cc(OCc2ccc(-n3ccnc3)cc2)cnn1 [Example 441, 6-(((5-((4-(1H-imidazol-1-yl)benzyl)oxy)pyridazin-3-yl)amino)methyl)-5,7-dimethylisoquinolin-1-amine] | 1 to 10 nM
CCOC(=O)CCc1nc(NCc2c(C)cc3c(N)nccc3c2C)cc(OCc2nc3ccc(C4CC4)cn3n2)n1 [Example 292, ethyl 3-(4-(((1-amino-5,7-dimethylisoquinolin-6-yl)methyl)amino)-6-((6-cyclopropyl-[1,2,4]triazolo[1,5-a]pyridin-2-yl)methoxy)pyrimidin-2-yl)propanoate] | 10 to 100 nM
Cc1cc2c(N)nccc2c(C)c1CNc1cc(OCc2ccc(CN3CCCCC3=O)cc2)cnn1 [Example 433, 1-(4-(((6-(((1-amino-5,7-dimethylisoquinolin-6-yl)methyl)amino)pyridazin-4-yl)oxy)methyl)benzyl)piperidin-2-one] | < 1 nM
COc1ccc2cc(Cn3cc(C(=O)NCc4c(C)cc5c(N)nccc5c4C)cn3)cnc2c1 [Example 110, N-((1-amino-5,7-dimethylisoquinolin-6-yl)methyl)-1-((7-methoxyquinolin-3-yl)methyl)-1H-pyrazole-4-carboxamide] | 1 to 10 nM
Cc1cc2c(N)nccc2c(C)c1CNC(=O)c1cnn(Cc2ccc3c(-n4ccccc4=O)cccc3c2)c1 [Example 125, N-((1-amino-5,7-dimethylisoquinolin-6-yl)methyl)-1-((5-(2-oxopyridin-1(2H)-yl)naphthalen-2-yl)methyl)-1H-pyrazole-4-carboxamide] | < 1 nM
Cc1cc2c(N)nccc2c(C)c1CNC(=O)c1cnn(Cc2ccc(CC(=O)N3C(C)CCC3C)cc2)c1 (stereo not shown) [Example 218, N-((1-amino-5,7-dimethylisoquinolin-6-y1)methyl)-1-(4-(2-(2,5-dimethylpyrrolidin-1-yl)-2-oxoethyl)benzyl)-1H-pyrazole-4-carboxamide] | 1 to 10 nM
CCOC(=O)Cc1ccc(Cn2cc(C(=O)NCc3c(C)cc4c(N)nccc4c3C)cn2)cc1 [Example 55, ethyl 2-(4-((4-(((1-amino-5,7-dimethylisoquinolin-6-yl)methyl)carbamoyl)-1H-pyrazol-1-yl)methyl)phenyl)acetate] | 1 to 10 nM
Cc1cc2c(N)nccc2c(C)c1CNc1cc(NCc2ccc3ncc(C(F)(F)F)cc3c2)ncn1 [Example 312, N^4-((1-amino-5,7-dimethylisoquinolin-6-yl)methyl)-N^6-((3-(trifluoromethyl)quinolin-6-yl)methyl)pyrimidine-4,6-diamine] | < 1 nM
Cc1cc2c(N)nccc2c(C)c1CNC(=O)c1cnn(Cc2cn3cc(C4CC4)ccc3n2)c1 [Example 99, N-((1-amino-5,7-dimethylisoquinolin-6-yl)methyl)-1-((6-cyclopropylimidazo[1,2-a]pyridin-2-yl)methyl)-1H-pyrazole-4-carboxamide] | < 1 nM
Cc1c(CNc2cc(NCc3ccc(Cn4ccccc4=O)cc3)cnn2)ccc2c(N)nccc12 [Example 536, 1-(4-(((6-(((1-amino-5-methylisoquinolin-6-yl)methyl)amino)pyridazin-4-yl)amino)methyl)benzyl)pyridin-2(1H)-one] | < 1 nM
Cc1cc2c(N)nccc2c(C)c1CNc1cc(OCc2ccc(Cc3ccn(C)n3)cc2)cnn1 [Example 439, 5,7-dimethyl-6-(((5-((4-((1-methyl-1H-pyrazol-3-yl)methyl)benzyl)oxy)pyridazin-3-yl)amino)methyl)isoquinolin-1-amine] | < 1 nM
